According to patent US9187472B2 (AbbVie Inc., priority 2012, dated 2015):
pIC50: −log10 of the molar value.

Legend:
[1] = molecular target: NAMPT (human, recombinant, C-terminally His-tagged) (Homo sapiens, UniProt P43490); assay: Time-Resolved Fluorescence Resonance Energy Transfer (TR-FRET) Binding Assay of NAMPT; details: without substrates; 6.8 nM NAMPT, 200 nM probe, 3 hours equilibration
In short: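 Competitive binding against an Oregon Green 488 tracer (200 nM), 6.8 nM His-tagged enzyme, 1 nM Tb antibody, 2% DMSO, 3 h at RT. IC50 derived from TR-FRET ratios.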

PC3 cells = assay: NAMPT Cell Proliferation Assay; type: cell-based; details: Homo sapiens, PC-3, 120 h, 5 days incubation, cell viability by Cell Titer Glo
In short: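 Proliferation of PC3 cells treated 5 days with a 10-fold compound series (top 10 μM) was quantified by Cell Titer Glo luminescence; IC50s were fitted from percent inhibition.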

NAMPT = NAMPT (Homo sapiens, UniProt P43490); assay: TR-FRET Binding Assay of NAMPT with PRPP; details: with 200 μM PRPP and 2.5 mM ATP; 2 nM NAMPT, 2 nM probe, 16 hours equilibration
Sequence of NAMPT (P43490 whole entry): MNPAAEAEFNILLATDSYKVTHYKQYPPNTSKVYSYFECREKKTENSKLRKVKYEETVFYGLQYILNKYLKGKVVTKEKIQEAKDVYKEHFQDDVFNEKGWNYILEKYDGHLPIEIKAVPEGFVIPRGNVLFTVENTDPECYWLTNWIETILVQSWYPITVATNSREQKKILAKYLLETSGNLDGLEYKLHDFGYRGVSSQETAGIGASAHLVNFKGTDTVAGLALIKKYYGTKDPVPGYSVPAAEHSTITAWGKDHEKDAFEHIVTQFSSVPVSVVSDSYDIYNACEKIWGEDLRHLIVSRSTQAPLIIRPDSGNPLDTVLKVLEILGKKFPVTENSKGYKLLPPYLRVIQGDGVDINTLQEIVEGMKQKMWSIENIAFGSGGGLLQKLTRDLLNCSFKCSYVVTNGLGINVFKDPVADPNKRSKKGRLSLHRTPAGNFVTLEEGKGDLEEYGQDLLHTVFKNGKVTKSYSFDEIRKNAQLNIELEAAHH
In short: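 Read-out is TR-FRET after a 16 h equilibration allowing possible compound modification by the enzyme. Final mix: 2 nM NAMPT, 2 nM probe, 1 nM Tb-anti-His antibody, 200 μM PRPP, 2.5 mM ATP, 2% DMSO.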

Sequence of NAMPT (human, recombinant, C-terminally His-tagged) (P43490 whole entry): as above

| Structure (SMILES) | pIC50 [1] | pIC50 (PC3 cells) | pIC50 (NAMPT) |
| --- | --- | --- | --- |
| O=C(NCc1ccn2ccnc2c1)c1ccc(O[C@H]2CCN(C(=O)[C@H]3CCCO3)C2)cc1 [Example 340, N-(imidazo[1,2-a]pyridin-7-ylmethyl)-4-({(3S)-1-[(2R)-tetrahydrofuran-2-ylcarbonyl]pyrrolidin-3-yl}oxy)benzamide] | < 5.00 | < 5.00 | 9.09 |
| O=C(NCc1ccc2nccn2c1)c1cnc(N(C[C@@H]2CCCO2)C(=O)C2CCOCC2)s1 [Example 150, N-(imidazo[1,2-a]pyridin-6-ylmethyl)-2-{[(2S)-tetrahydrofuran-2-ylmethyl](tetrahydro-2H-pyran-4-ylcarbonyl)amino}-1,3-thiazole-5-carboxamide] | 5.21 | 7.44 | 8.46 |
| CC[C@H](C)C(=O)N1CC(c2ccc(NC(=O)NCc3ccn4ccnc4c3)cc2)C1 [Example 453, 1-(imidazo[1,2-a]pyridin-7-ylmethyl)-3-(4-{1-[(2S)-2-methylbutanoyl]azetidin-3-yl}phenyl)urea] | 6.82 | 8.04 | 9.59 |
| O=C(NCc1ccc2nccn2c1)c1ccc(C2=CCN(C(=O)C3CCOC3)CC2)cc1 (stereo not drawn) [Example 100, N-(imidazo[1,2-a]pyridin-6-ylmethyl)-4-[1-(tetrahydrofuran-3-ylcarbonyl)-1,2,3,6-tetrahydropyridin-4-yl]benzamide] | 6.99 | 7.79 | 9.77 |
| O=C(NCc1ccn2ccnc2c1)c1ccc(C2CN(C(=O)c3cccc(Cl)c3)C2)cc1 [Example 646, 4-[1-(3-chlorobenzoyl)azetidin-3-yl]-N-(imidazo[1,2-a]pyridin-7-ylmethyl)benzamide] | 6.71 | 6.89 | 9.29 |
| O=C(NCc1ccn2ccnc2c1)c1ccc(OC2CCN(C(=O)CC3CCOCC3)CC2)cc1 [Example 422, N-(imidazo[1,2-a]pyridin-7-ylmethyl)-4-{[1-(tetrahydro-2H-pyran-4-ylacetyl)piperidin-4-yl]oxy}benzamide] | 5.76 | 6.96 | 9.67 |
| CC1(Cn2cc(-c3ccc(C(=O)NCc4ccc5nccn5c4)s3)cn2)COC1 [Example 177, N-(imidazo[1,2-a]pyridin-6-ylmethyl)-5-{1-[(3-methyloxetan-3-yl)methyl]-1H-pyrazol-4-yl}thiophene-2-carboxamide] | 7.70 | 8.77 | 9.77 |
| CC(C)C(=O)N1CC(c2ccc(NC(=O)NCc3ccn4ccnc4c3)cc2)C1 [Example 452, 1-(imidazo[1,2-a]pyridin-7-ylmethyl)-3-{4-[1-(2-methylpropanoyl)azetidin-3-yl]phenyl}urea] | 6.53 | 7.23 | 9.55 |
| O=C(NCc1ccn2ccnc2c1)c1ccc(-c2cnn(CC3CCNCC3)c2)s1 [Example 485, N-(imidazo[1,2-a]pyridin-7-ylmethyl)-5-[1-(piperidin-4-ylmethyl)-1H-pyrazol-4-yl]thiophene-2-carboxamide] | 7.02 | 7.46 | 9.69 |
| O=C(NCc1ccn2ccnc2c1)Nc1ccc(OC2CCN(C(=O)c3cc(F)cc(F)c3)CC2)cc1 [Example 730, 1-(4-{[1-(3,5-difluorobenzoyl)piperidin-4-yl]oxy}phenyl)-3-(imidazo[1,2-a]pyridin-7-ylmethyl)urea] | 6.31 | 7.53 | 9.07 |
| CC(C)CCNC(=O)c1ccc(NC(=O)NCc2ccc3nccn3c2)cc1 [Example 59, 4-{[(imidazo[1,2-a]pyridin-6-ylmethyl)carbamoyl]amino}-N-(3-methylbutyl)benzamide] | 6.65 | 6.84 | 9.16 |
| O=C(NCc1ccn2ccnc2c1)c1ccc(-c2ccccc2)s1 [Example 299, N-(imidazo[1,2-a]pyridin-7-ylmethyl)-5-phenylthiophene-2-carboxamide] | 6.76 | 5.06 | 9.55 |
| CC[C@@H](O)Cn1cc(-c2ccc(C(=O)NCc3ccc4nccn4c3)s2)cn1 [Example 180, 5-{1-[(2R)-2-hydroxybutyl]-1H-pyrazol-4-yl}-N-(imidazo[1,2-a]pyridin-6-ylmethyl)thiophene-2-carboxamide] | 6.23 | 8.04 | 9.58 |

Further lines, results first:

| pIC50 [1] | pIC50 (PC3 cells) | pIC50 (NAMPT) | Structure (SMILES) |
| --- | --- | --- | --- |
| 5.02 | 6.73 | 8.53 | O=C(NCc1ccc2nccn2c1)c1cnc(N(CC2CCOCC2)C(=O)C2CCOCC2)s1 [Example 144, N-(imidazo[1,2-a]pyridin-6-ylmethyl)-2-[(tetrahydro-2H-pyran-4-ylcarbonyl)(tetrahydro-2H-pyran-4-ylmethyl)amino]-1,3-thiazole-5-carboxamide] |
| 6.75 | 7.45 | 9.54 | O=C(NCc1ccn2ccnc2c1)c1cnc(C2=CCN(C(=O)c3ccccc3)CC2)s1 [Example 297, 2-(1-benzoyl-1,2,3,6-tetrahydropyridin-4-yl)-N-(imidazo[1,2-a]pyridin-7-ylmethyl)-1,3-thiazole-5-carboxamide] |
| 8.27 | 8.18 | 9.39 | O=C(NCc1ccn2ccnc2c1)c1ccc(C2(O)CCN(C(=O)c3ccccc3)CC2)s1 [Example 556, 5-(1-benzoyl-4-hydroxypiperidin-4-yl)-N-(imidazo[1,2-a]pyridin-7-ylmethyl)thiophene-2-carboxamide] |
| 7.59 | 8.19 | 9.77 | CC[C@H](C)C(=O)N1CC(Oc2ccc(NC(=O)NCc3ccn4ccnc4c3)cc2)C1 [Example 426, 1-(imidazo[1,2-a]pyridin-7-ylmethyl)-3-[4-({1-[(2S)-2-methylbutanoyl]azetidin-3-yl}oxy)phenyl]urea] |
| 6.02 | 7.09 | 8.96 | O=C(NCc1ccn2ccnc2c1)c1ccc(C2CCN(C(=O)CC3CCCC3)C2)cc1 (stereo not drawn) [Example 581, 4-[1-(cyclopentylacetyl)pyrrolidin-3-yl]-N-(imidazo[1,2-a]pyridin-7-ylmethyl)benzamide] |
| 7.00 | 7.76 | 9.77 | Cn1cccc1C(=O)N1CCC(c2ccc(C(=O)NCc3ccn4ccnc4c3)cc2)CC1 [Example 533, N-(imidazo[1,2-a]pyridin-7-ylmethyl)-4-{1-[(1-methyl-1H-pyrrol-2-yl)carbonyl]piperidin-4-yl}benzamide] |
| < 5.00 | 5.17 | 9.34 | O=C(NCc1ccn2ccnc2c1)c1ccc(O[C@H]2CCN(C(=O)C3CCOCC3)C2)cc1 [Example 342, N-(imidazo[1,2-a]pyridin-7-ylmethyl)-4-{[(3S)-1-(tetrahydro-2H-pyran-4-ylcarbonyl)pyrrolidin-3-yl]oxy}benzamide] |
| 7.84 | 8.73 | 9.77 | O=C(NCc1ccc2nccn2c1)c1ccc(-c2cnn(CC3CCC3)c2)s1 [Example 178, 5-[1-(cyclobutylmethyl)-1H-pyrazol-4-yl]-N-(imidazo[1,2-a]pyridin-6-ylmethyl)thiophene-2-carboxamide] |
| 7.03 | 8.96 | 9.25 | CC(C)(C)OC(=O)N1CCN(CCn2cc(-c3ccc(C(=O)NCc4ccn5ccnc5c4)s3)cn2)CC1 [Example 808, tert-butyl 4-[2-(4-{5-[(imidazo[1,2-a]pyridin-7-ylmethyl)carbamoyl]thiophen-2-yl}-1H-pyrazol-1-yl)ethyl]piperazine-1-carboxylate] |
